Assay results taken from article PMC12362431, “Kinetic Dissection of the Reaction of Human GDP-L-Fucose Synthase” (ACS Catalysis, 2025).
Where two headings read alike, the source gives them in different places. One block for each molecule: values may come before it.

What was measured:
GFS [1] = biological target: GFS; design: method as in not given; details: earlier studies of GFS, source organism not given; ref not given; cited from earlier work
[2] = biological target: enzyme/NADP+ (GFS/NADP+ complex) (Homo sapiens, UniProt Q13630); test: Fluorescence titration, equilibrium binding (quenching of intrinsic protein fluorescence)
[3] = biological target: enzyme/NADPH4 (GFS/NADPH4 complex) (Homo sapiens, UniProt Q13630); test: as above
wild-type GFS [4] = biological target: T1, wild-type GFS (Homo sapiens, UniProt Q13630); test: Global simulation fitting of mechanism b to transient stopped-flow curves; assay type: biochemical; details: release from the ternary product complex enzyme/NADP+/GDP-L-fucose
T1 construct: made in house; host or cells: E. coli Rosetta 2(DE3)
Protocol: Spectrofluorometric analysis of ligand binding
Fluorescence titrations of wild-type GFS in the binding of coenzyme, substrate and/or product were performed using a fluorescence spectrophotometer F-4500 (Hitachi, Ltd., Tokyo, Japan).
Emission spectra were recorded in the range 300–500 nm at 1200 nm/min with the excitation […]
25 mM NaCl, pH 8.0) without agitation (25 °C). […] The resulting fluorescence signals were plotted versus ligands concentrations and the data were fitted to a hyperbol ic equation (Eq. S6) to obtain the Kd value (Figure S8, S9; Table S3): […]
where F is the fluorescence emission, [L] is concentration of ligand, F1 is the initial and F2 is the final fluorescence signal, [E] is the enzyme subunit concentration. […]
the fluorescence measurements. […]
Standard errors for the fitted rate constants were estimated as standard deviations based on the variability observed during global fitting . The goodness of fit to the model was assessed by confidence contour analysis, in which all parameters, except for k-1, were well constrained by the data. […]

GFS complex with NADPH4 = biological target: T2, GFS complex with NADPH4 (Homo sapiens, UniProt Q13630); test: Stopped-flow transient kinetic analysis of binding of GDP-L-fucose (fluorescence quenching)
T2 construct: made in house; host or cells: E. coli Rosetta 2(DE3)

[5] = biological target: apo GFS (ligand-free wild-type GFS) (Homo sapiens, UniProt Q13630); test: Fluorescence titration, equilibrium binding (quenching of intrinsic protein fluorescence); details: for Kd: apo GFS 0.40 μM, 10 mM Tris, 25 mM NaCl, pH 8.0, 25 °C
wild-type GFS [6] = biological target: T1, wild-type GFS; test: Steady-state initial-rate kinetics and primary KIE (NADPH consumption, absorbance at 340 nm); assay type: biochemical
GFS [7] = tested on: GFS; design: method as in not given; details: earlier studies of GFS, source organism not given; ref not given; cited from earlier work; remark: listed apart in the source
GFS variant H186K = biological target: T3, GFS variant H186K (Homo sapiens, UniProt Q13630, H186K); test: Steady-state initial-rate kinetics and primary KIE (NADPH consumption, absorbance at 340 nm); assay type: biochemical
T3 construct: made in house; host or cells: E. coli Rosetta 2(DE3)

GFS variant Y143F = biological target: T4, GFS variant Y143F (Homo sapiens, UniProt Q13630, Y143F); test: as above; assay type: biochemical
T4 construct: made in house; host or cells: E. coli Rosetta 2(DE3)

GFS variant C116S = biological target: T5, GFS variant C116S (Homo sapiens, UniProt Q13630, C116S); test: as above; assay type: biochemical; details: deuterated vs unlabeled substrate/coenzyme, pH 8.0, 37 °C, in 1/s
T5 construct: made in house; host or cells: E. coli Rosetta 2(DE3)

[8] = nonlinear fit of kobs with eq S15
[9] = deuterated vs unlabeled substrate/coenzyme, pH 8.0, 37 °C, in 1/s
[10] = varied substrate 3, pH 8.0, 37 °C

T2 sequence (Q13630 8-321, one chain of several): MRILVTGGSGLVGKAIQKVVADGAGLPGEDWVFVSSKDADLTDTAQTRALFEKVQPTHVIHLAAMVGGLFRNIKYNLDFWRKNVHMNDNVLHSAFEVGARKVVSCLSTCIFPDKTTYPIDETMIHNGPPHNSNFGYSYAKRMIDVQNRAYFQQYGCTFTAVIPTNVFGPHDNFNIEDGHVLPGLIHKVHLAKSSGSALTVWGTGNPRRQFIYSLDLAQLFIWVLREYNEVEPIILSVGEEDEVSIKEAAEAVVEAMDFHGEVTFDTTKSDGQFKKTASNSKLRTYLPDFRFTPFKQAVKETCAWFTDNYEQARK
Chain of apo GFS (ligand-free wild-type GFS) (Q13630 8-321): as the sequence (Q13630 8-321, one chain of several) above
T1 sequence (Q13630 8-321): as the sequence (Q13630 8-321, one chain of several) above
T3 sequence (Q13630 whole entry H186K): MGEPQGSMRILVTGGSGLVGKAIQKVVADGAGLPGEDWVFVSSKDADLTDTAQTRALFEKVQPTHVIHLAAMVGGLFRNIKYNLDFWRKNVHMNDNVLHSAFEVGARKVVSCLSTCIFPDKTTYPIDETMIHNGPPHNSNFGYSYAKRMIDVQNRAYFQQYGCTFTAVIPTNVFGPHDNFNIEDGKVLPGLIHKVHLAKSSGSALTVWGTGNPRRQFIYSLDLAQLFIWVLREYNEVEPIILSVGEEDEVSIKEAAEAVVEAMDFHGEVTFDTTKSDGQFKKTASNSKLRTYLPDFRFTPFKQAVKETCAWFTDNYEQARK
Chain of enzyme/NADPH4 (GFS/NADPH4 complex) (Q13630 8-321, one chain of several): as the sequence (Q13630 8-321, one chain of several) above
T4 sequence (Q13630 whole entry Y143F): as the sequence (Q13630 whole entry H186K) above, with Y143F, K186H counted along it
Chain of enzyme/NADP+ (GFS/NADP+ complex) (Q13630 8-321, one chain of several): as the sequence (Q13630 8-321, one chain of several) above
T5 sequence (Q13630 whole entry C116S): as the sequence (Q13630 whole entry H186K) above, with C116S, K186H counted along it

- Kd [2]: 13 ± 4 µM
- Kd [3]: 1.1 ± 0.2 µM
- tighter binding to enzyme-NADPH4 than to enzyme-NADP+ ([3]; ratio of Kd values): ~12 fold
- rate constant for the release (wild-type GFS [4]): 12 s^–1
- koff (GFS complex with NADPH4; global simulation fit, lower bound only, read-out: koff (association step)): ≥ 11 s⁻¹
- kon (GFS complex with NADPH4; global simulation fit, lower bound only, read-out: kon (association step)): ≥ 2e+06 M⁻¹ s⁻¹
- k′1 (GFS complex with NADPH4; global simulation fit, range 0.3–0.8 s^–1): 0.6 s^–1
- k′–1 (GFS complex with NADPH4; global simulation fit, range 0.5–1.4 s^–1): 0.9 s^–1
- Kd (GFS complex with NADPH4; global simulation fit, range 3–12 μM, read-out: Kd (two-step binding)): 7 µM
- k′1 (forward conformational change) (GFS complex with NADPH4; [8]): 0.6 ± 0.1 s⁻¹
- k′–1 (reverse conformational change, GDP-L-fucose release rate) (GFS complex with NADPH4; [8]): 0.5 ± 0.1 s^–1
- Kd (GFS complex with NADPH4; nonlinear fit of kobs with eq S15, GFS 2.0 μM, NADPH4 15.0 μM, pH 8.0, 37 °C, read-out: Kd (encounter complex, two-step binding)): 4 ± 2 µM
SMILES: CC1OC(OP(=O)(O)OP(=O)(O)OCC2OC(n3cnc4c(=O)[nH]c(N)nc43)C(O)C2O)C(O)C(O)C1O [1a, GDP-L-fucose]
- Ki (GFS [1]): 55.3 µM

SMILES: Nc1nc2c(ncn2[C@@H]2O[C@H](COP(=O)(O)OP(=O)(O)O)[C@@H](O)[C@H]2O)c(=O)[nH]1 [GDP, guanosine 5′-diphosphate]
- Ki (GFS [1]): 60.5 µM

- Kd [5]: 8 ± 2 µM
- rate constant for the release (wild-type GFS [4]): 26 s^–1
SMILES: NC(=O)c1ccc[n+]([C@@H]2O[C@H](COP(=O)([O-])OP(=O)(O)OC[C@H]3O[C@@H](n4cnc5c(N)ncnc54)[C@H](OP(=O)(O)O)[C@@H]3O)[C@@H](O)[C@H]2O)c1 [NADP+]

- Kd [5]: 0.3 ± 0.1 µM
- tighter binding to the free GFS than NADP+ ([5]; ratio of Kd values): 27 fold
SMILES: NC(=O)C1=CN([C@@H]2O[C@H](COP(=O)(O)OP(=O)(O)OC[C@H]3O[C@@H](n4cnc5c(N)ncnc54)[C@H](OP(=O)(O)O)[C@@H]3O)[C@@H](O)[C@H]2O)CCC1 [NADPH4, 1″,4″,5″,6″-tetrahydro-NADPH]

- Km (wild-type GFS [6]; varied NADPH, substrate 3 100 μM, pH 8.0, 37 °C): 0.75 ± 0.03 µM
SMILES: NC(=O)C1=CN([C@@H]2O[C@H](COP(=O)(O)OP(=O)(O)OC[C@H]3O[C@@H](n4cnc5c(N)ncnc54)[C@H](OP(=O)(O)O)[C@@H]3O)[C@@H](O)[C@H]2O)C=CC1 [NADPH]

- kinetic isotope effect on kcat (Dkcat) (GFS variant H186K; [9]): 1.12 ± 0.08
- kinetic isotope effect on kcat/Km, Dkcat/Km^3 (GFS variant H186K; [10]): 1.1 ± 0.5
- kinetic isotope effect on kcat (Dkcat) (GFS variant Y143F; [9]): 3.9 ± 0.3
- kinetic isotope effect on kcat/Km, Dkcat/Km^3 (GFS variant Y143F; [10]): 4 ± 1
- kinetic isotope effect on kcat (Dkcat) (wild-type GFS [6]; [9]): 1.03 ± 0.05
- kinetic isotope effect on kcat/Km, Dkcat/Km^NADPH (wild-type GFS [6]; varied coenzyme, substrate 3 100 μM, pH 8.0, 37 °C): 1.6 ± 0.2
- kinetic isotope effect on kcat/Km, Dkcat/Km^3 (wild-type GFS [6]; [10]): 1.4 ± 0.4
- kinetic isotope effect on kcat (Dkcat) (GFS variant C116S): 1.0 ± 0.2
SMILES: [2H][C@@H]1C=CN([C@@H]2O[C@H](COP(=O)(O)OP(=O)(O)OC[C@H]3O[C@@H](n4cnc5c(N)ncnc54)[C@H](OP(=O)(O)O)[C@@H]3O)[C@@H](O)[C@H]2O)C=C1C(N)=O [[4S-^2H]-NADPH]
- KIE on the enzymatic rate (GFS [7]): 1.4
